US20260083677A1, “ACTIVE INGREDIENT CONTAINING STABILISED SOLID MEDICINAL FORMS AND METHODS FOR THE PRODUCTION THEREOF” (ASTELLAS PHARMA INC., priority 2006, published 2026)

Assays:
Assay type in all cases: physicochemical
[1] = relative equilibrium moisture content in sealed measuring cell (HygroLab, AWVC cell); conditions: for equilibrium moisture: substances dried at 130° C. for 5 hours (sorbitol: 70° C.)
Protocol: In connection with the present invention it is, however, very important to have a method furnishing information on the bonding mechanism of water and the strength of the water bond. For this purpose, the so-called “relative equilibrium moisture content” (hereinafter also abbreviated as “equilibrium moisture content”) is measured which forms on the sample in a fully sealed measuring cell at a certain temperature. It is also referred to as equilibrium activity or water activity. The water activity describes the bond strength of water to the active ingredient and/or the individual components of the active ingredient mixture. The measured value for the water activity and/or for the equilibrium moisture (Equilibrium Relative Humidity) has a decisive influence on the chemical stability of a moisture-sensitive active ingredient which is embedded in a solid form, such as granules, a capsule or tablet.
The equilibrium moisture content is the value of the relative humidity in which a hygroscopic product can be stored without a net moisture exchange taking place between the product and its environment. Thus, if a solid form has an equilibrium moisture content of 10% and is stored at a relative humidity of 15%, it absorbs water from its environment, if the relative moisture of the environment is below 10%, the solid form releases water to its environment and becomes even drier.
Unless otherwise specified, the equilibrium moisture content is determined as follows in a thermostated small, tightly sealed measuring cell having a volume of about 50 ml. In the upper part of this measuring cell there is a sensor which can measure the relative moisture content resulting from the evaporation of water from the sample to be measured (the device HygroLab having the AWVC measuring cell of Rotronic company, CH 8303 Bassersdorf, Switzerland, is used) The device is officially calibrated and the measuring inaccuracy is no more than +1% relative humidity or +0.3° C. The measuring accuracy can be repeated at any time with standardized salt solutions as known to the person skilled in the art. The measurement takes place at 25° C.

[2] = drying loss determination on a drying balance; conditions: for drying loss at 130° C./30 min: substances dried at 130° C. for 5 hours (sorbitol: 70° C.)
Protocol: drying loss in %=mass of the water in the sample/total mass of the sample×100
In order to determine the drying loss of a sample (e.g. a solid medicinal form), the sample is spread over a so-called drying balance and (e.g. by an accurately working infrared radiator) adjusted to the desired temperature, e.g. of 105° C. After a certain time (e.g. after 20 or 30 minutes), the drying loss due to the evaporation of water is directly read off the balance in percent. Unless otherwise specified in this application, the expression “drying loss” refers to the drying loss determined under the conditions of 105° C./30 min. A suitable device for measuring of the drying loss is the Moisture Analyzer HR83 of Mettler-Toledo company (CH-8606 Greifensee, Switzerland). The device or the drying balance is preferably used in a closed interior having an ambient temperature of 20° C. and 20% relative humidity.

[3] = removal of water of crystallization from amoxicilline trihydrate by a drying agent in a tightly sealing glass vessel
Protocol: In a tightly sealing glass vessel, two Arcellas having 3.5 g trimagnesium dicitrate, dried at 130° C., or having 1.264 g amoxicilline trihydrate (water content 13.1%) are placed side by side and stored at 25° C. After 14 days, the weight of amoxicilline is only 1,105 g whereas the weight of trimagnesium dicitrate is 3.66 g. The amoxicilline released 12.6% water of crystallization which was absorbed by the drying agent. The new drying agent is active such that it virtually split off the entire water of crystallization of amoxicilline (theoretical value: 12.9%).
If this experiment is repeated with the known drying agent silica gel, the antibiotic only loses 0.1% weight after 25 days. This means that the dried trimagnesium dicitrate according to the invention represents an extremely potent drying agent.
Under precisely equal test conditions, the amoxicilline only loses 9.0% with calcium chloride dried at 130° C. after 26 days/25° C.

[4] = weight increase on storage at 25° C./15% relative humidity over 27 days; conditions: substances dried at 130° C. for 5 hours (sorbitol: 70° C.)
Protocol: The substances were dried at 130° C. for 5 hours (sorbitol: 70° C.) and the drying loss was determined. Then, the weight increase of the individual substances was determined at 25° C./15% relative humidity over 27 days.

[5] = measuring cell thermostated to 25° C.
[6] = after drying at 130° C. for several hours
[7] = measured at 150° C./30 min, after drying at 130° C. for several hours

Structure (SMILES)	equilibrium moisture content [1, 5] [%]	weight increase (%) with storage at 15% relative humidity/25° C. [4] [%]	equilibrium moisture content [1, 6] [%]	equilibrium moisture [1] [%]	drying loss [2, 7] [%]	drying loss at 130° C./30 min [2]	also measured
O=S(=O)([O-])[O-].[Na+].[Na+] [Sodium sulfate, reference compound]	32.7						drying loss at 130° C. ([2]; testing period 30 min): 0.06%
CC1(C)S[C@@H]2[C@H](NC(=O)[C@H](N)c3ccc(O)cc3)C(=O)N2[C@H]1C(=O)O [amoxicilline, amoxicilline trihydrate]							weight of amoxicilline after storage ([3]; 1.264 g at start, beside 3.5 g dried trimagnesium dicitrate, 14 days, 25° C.): 1,105 g; weight loss ([3]; drying agent calcium chloride dried at 130° C., after 26 days/25° C.): 9.0%; weight loss ([3]; drying agent silica gel, after 25 days): 0.1%; water of crystallization released ([3]; drying agent trimagnesium dicitrate dried at 130° C., 14 days, 25° C.): 12.6%
[Ca+2].[Cl-].[Cl-] [calcium chloride]		45.9	< 0.5	< 1	3.4	0.02	
O=C(O)CC(O)(CC(=O)O)C(=O)O [citric acid]	63						drying loss ([2]; measured at 70° C./30 min): 0.2%
OC[C@@H](O)[C@@H](O)[C@H](O)[C@@H](O)CO [sorbitol]		0.1		9		0.1	
O=C([O-])CC(O)(CC(=O)[O-])C(=O)[O-].O=C([O-])CC(O)(CC(=O)[O-])C(=O)[O-].[Mg+2].[Mg+2].[Mg+2] [trimagnesium dicitrate]		8.6	< 0.5	< 1	1.6	0.2	equilibrium moisture content ([1]; after drying at 130° C. for several hours, at 25° C.): 0.6%; weight of trimagnesium dicitrate after storage ([3]; 3.5 g at start, dried at 130° C., beside amoxicilline trihydrate, 14 days, 25° C.): 3.66 g
